The source made the active and inactive calls.
Experiments:
Type in all cases: functional, cell-based
3T3-L1 [1] = assay: Induction of glucose uptake in mouse 3T3-L1 cells assessed as stimulation of in 2-NBDG uptake by measuring fluorescence intensity incubated for 1 hr in glucose free media hr by fluorescence microscopic analysis; details: dose 5-20 µM
3T3-L1 [2] = assay: Induction of glucose uptake in mouse 3T3-L1 cells assessed as stimulation of in 2-NBDG uptake by measuring fluorescence intensity at 20 uM incubated for 1 hr in glucose free media hr by fluorescence microscopic analysis
3T3-L1 [3] = assay: Induction of glucose uptake in mouse 3T3-L1 cells assessed as stimulation of in 2-NBDG uptake by measuring fluorescence intensity at 5 to 20 uM incubated for 1 hr in glucose free media hr by fluorescence microscopic analysis; details: dose 5-20 µM

Measured: Activity

C[C@@H]1O[C@@H](O[C@H]2Cc3c(O)cc4c(c3O[C@@H]2c2ccc(O)c(O)c2)C(C)(C)[C@@]2(CNC(N)=NO2)O4)[C@H](O)[C@H](O)[C@H]1O
active: 3T3-L1 [1] Dose-Dependent Effect | 3T3-L1 [2] | 3T3-L1 [3]

CC(C)=CCNC1=NO[C@]2(CN1)Oc1cc(O)c3c(c1C2(C)C)O[C@H](c1ccc(O)c(O)c1)[C@@H](O[C@@H]1O[C@@H](C)[C@H](O)[C@@H](O)[C@H]1O)C3
active: 3T3-L1 [1] Dose-Dependent Effect | 3T3-L1 [2] | 3T3-L1 [3]

CC(C)=CCNC1=NO[C@@]2(CN1)Oc1cc(O)c3c(c1C2(C)C)O[C@H](c1ccc(O)c(O)c1)[C@@H](O[C@@H]1O[C@@H](C)[C@H](O)[C@@H](O)[C@H]1O)C3
active: 3T3-L1 [1] Dose-Dependent Effect | 3T3-L1 [2] | 3T3-L1 [3]

Reference: ChEMBL document CHEMBL5236561, “Rugonidines A-F, Diastereomeric 1,6-Dioxa-7,9-diazaspiro[4.5]dec-7-en-8-amines from the Leaves of Alchornea rugosa” (J Nat Prod, 2021)
